Laboratory results reported in US20070280915A1, “Combination Therapies Employing A Composition Comprising A Hmg Coa Reductase Inhibitor And A Vitamin B6 Related Compound” (priority 2003, published 2007).
pIC50: −log10 of the molar value. Read-outs that look alike come from different tables or passages of the source.

What was measured:
CYP2C19 = CYP2C19 (Homo sapiens, UniProt P33261); experiment: CYP2C19 inhibition assay (substrate CEC); conditions: read-out: Pyridoxal 5′-phosphate IC50, 0.0169 to […] tested, listed as pyridoxal 5′-phosphate
CYP2C19, sequence (P33261 whole entry): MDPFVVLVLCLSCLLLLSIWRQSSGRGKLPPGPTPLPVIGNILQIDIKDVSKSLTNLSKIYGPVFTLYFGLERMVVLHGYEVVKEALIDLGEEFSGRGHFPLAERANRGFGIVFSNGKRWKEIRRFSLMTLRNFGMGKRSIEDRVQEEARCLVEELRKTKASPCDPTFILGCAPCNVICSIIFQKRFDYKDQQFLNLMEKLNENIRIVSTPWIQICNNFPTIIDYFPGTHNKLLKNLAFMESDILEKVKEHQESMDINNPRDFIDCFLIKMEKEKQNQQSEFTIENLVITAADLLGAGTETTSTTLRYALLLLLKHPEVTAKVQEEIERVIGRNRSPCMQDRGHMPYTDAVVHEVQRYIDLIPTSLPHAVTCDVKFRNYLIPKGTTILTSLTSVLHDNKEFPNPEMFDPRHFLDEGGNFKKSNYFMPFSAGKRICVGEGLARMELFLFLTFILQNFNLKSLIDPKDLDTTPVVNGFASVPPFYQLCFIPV
From the text: (§1) The CYP inhibition assays used microsomes (Supersomes®, Gentest Corp., Woburn, Mass.) prepared from insect cells, each expressing an individual CYP subtype (CYP1A2, CYP2A6, CYP2B6, CYP2C8, CYP2C9, CYP2C19, CYP2D6, CYP2E1 or CYP3A4) expressed from the corresponding human CYP cDNA using a baculovirus expression vector. The microsomes also incorporated supplemental cDNA-expressed human reductase and/or cytochrome b5, as these enzymes stimulate the activity of the CYPs, allowing for a reduction in the amount of enzyme required per reaction (Gentest Corp.). The assays monitored, via fluorescence detection, the formation of a fluorescent metabolite following incubation of the microsomes with a specific CYP substrate. […]
(§2) Eight inhibitor and test compound concentrations were tested using 3-fold serial dilutions. […] The amount of metabolic product formed was quantified by fluorescence detection in a fluorescence plate reader utilizing excitation and emission filters that had been optimized for the detection of each metabolite.
(§3) Data Analysis—The mean of the duplicate fluorescent signals in the presence and absence (vehicle control) of each compound was calculated and corrected for the background noise. […]

CYP2A6 = biological target: T1, CYP2A6 (Homo sapiens, UniProt P11509); experiment: CYP2A6 inhibition assay (substrate coumarin); conditions: 0.0169 to […] tested, na = concentration-dependent inhibition not observed
T1 sequence (P11509 1-494): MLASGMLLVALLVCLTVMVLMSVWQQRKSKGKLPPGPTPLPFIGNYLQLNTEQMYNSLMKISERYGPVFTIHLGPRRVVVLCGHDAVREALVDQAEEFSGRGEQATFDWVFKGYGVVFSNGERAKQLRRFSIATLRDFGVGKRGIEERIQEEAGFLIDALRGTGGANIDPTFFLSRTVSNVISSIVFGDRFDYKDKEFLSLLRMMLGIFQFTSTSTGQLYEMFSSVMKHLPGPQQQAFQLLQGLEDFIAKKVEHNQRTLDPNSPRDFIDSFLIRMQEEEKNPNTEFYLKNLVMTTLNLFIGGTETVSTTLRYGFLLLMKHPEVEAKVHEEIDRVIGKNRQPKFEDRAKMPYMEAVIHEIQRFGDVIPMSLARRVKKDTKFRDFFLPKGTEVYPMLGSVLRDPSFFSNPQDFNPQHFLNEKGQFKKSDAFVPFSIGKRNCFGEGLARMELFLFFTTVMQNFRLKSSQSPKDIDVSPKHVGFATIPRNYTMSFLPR
From the text: (§4) The CYP inhibition assays used microsomes (Supersomes®, Gentest Corp., Woburn, Mass.) prepared from insect cells, each expressing an individual CYP subtype (CYP1A2, CYP2A6, CYP2B6, CYP2C8, CYP2C9, CYP2C19, CYP2D6, CYP2E1 or CYP3A4) expressed from the corresponding human CYP cDNA using a baculovirus expression vector. The microsomes also incorporated supplemental cDNA-expressed human reductase and/or cytochrome b5, as these enzymes stimulate the activity of the CYPs, allowing for a reduction in the amount of enzyme required per reaction (Gentest Corp.). The assays monitored, via fluorescence detection, the formation of a fluorescent metabolite following incubation of the microsomes with a specific CYP substrate. […] Reactions (0.2 mL) were performed in 96-well microtitre plates at 37° C. in the presence of an NADPH regenerating system [NADP+, glucose-6-phosphate (G6P), glucose-6-phosphate dehydrogenase (G6PDH)] and MgCl2. […] All determinations were performed in duplicate. The reagent solutions used for all of the CYP subtype assays, except CYP2C19 and CYP3A4, were prepared by MBDI. For CYP2C19 and CYP3A4, complete reagent kits purchased from Gentest Corp. (CYP2C19/CEC: Cat. No. HTS-4000, Lot No. 1; CYP3A4/BFC: Cat. No. HTS-1000, Lot No. 1) were used to perform the assays.
as §2, with “dilutions. The microtitre plates containing 0.1 mL/well of the latter mixture were pre-warmed to 37° C. in an incubator.” for “dilutions.”
(§5) Data Analysis—The mean of the duplicate fluorescent signals in the presence and absence (vehicle control) of each compound was calculated and corrected for the background noise. Percent inhibition was calculated as the difference in the corrected fluorescent signals in the absence and presence of the compound, divided by the corrected fluorescent signal in the absence of compound, multiplied by 100%.

CYP2B6 = biological target: T2, CYP2B6 (Homo sapiens, UniProt P20813); experiment: CYP2B6 inhibition assay (substrate EFC); conditions: 0.0169 to […] tested, na = concentration-dependent inhibition not observed
T2 sequence (P20813 1-491): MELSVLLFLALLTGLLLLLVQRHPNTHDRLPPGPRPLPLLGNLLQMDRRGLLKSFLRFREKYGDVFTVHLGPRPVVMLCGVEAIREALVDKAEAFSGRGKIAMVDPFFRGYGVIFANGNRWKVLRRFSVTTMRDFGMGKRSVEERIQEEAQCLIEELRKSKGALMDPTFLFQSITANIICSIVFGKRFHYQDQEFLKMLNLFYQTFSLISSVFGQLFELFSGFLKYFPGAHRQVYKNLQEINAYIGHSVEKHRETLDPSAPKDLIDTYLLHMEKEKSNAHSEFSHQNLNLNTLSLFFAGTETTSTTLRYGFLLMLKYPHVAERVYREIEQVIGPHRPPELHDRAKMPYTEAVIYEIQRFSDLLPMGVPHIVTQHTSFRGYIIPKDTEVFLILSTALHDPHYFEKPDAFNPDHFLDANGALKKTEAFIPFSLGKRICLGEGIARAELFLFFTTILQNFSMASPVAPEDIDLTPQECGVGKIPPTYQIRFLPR
From the text: as §4
as §2, with “dilutions. The microtitre plates containing 0.1 mL/well of the latter mixture were pre-warmed to 37° C. in an incubator.” for “dilutions.”
as §5

CYP3A4 = CYP3A4 (Homo sapiens, UniProt P08684); experiment: CYP3A4 inhibition assay (substrates BFC and BQ)
CYP3A4, sequence (P08684 whole entry): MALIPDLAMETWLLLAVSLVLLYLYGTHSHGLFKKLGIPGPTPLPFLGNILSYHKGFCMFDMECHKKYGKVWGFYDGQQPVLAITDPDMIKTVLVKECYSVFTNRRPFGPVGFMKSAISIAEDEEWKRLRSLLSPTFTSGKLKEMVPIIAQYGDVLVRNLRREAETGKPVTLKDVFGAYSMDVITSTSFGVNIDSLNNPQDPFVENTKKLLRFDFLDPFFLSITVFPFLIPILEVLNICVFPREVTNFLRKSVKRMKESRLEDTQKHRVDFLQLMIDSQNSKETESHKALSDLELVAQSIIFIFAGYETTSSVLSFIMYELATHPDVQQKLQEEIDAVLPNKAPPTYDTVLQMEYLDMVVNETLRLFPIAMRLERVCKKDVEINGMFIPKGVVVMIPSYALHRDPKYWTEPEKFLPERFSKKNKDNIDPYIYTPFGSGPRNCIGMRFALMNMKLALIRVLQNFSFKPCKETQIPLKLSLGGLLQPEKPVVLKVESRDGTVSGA
From the text: as §1, §2, §3

CYP2E1 = biological target: T3, CYP2E1 (Homo sapiens, UniProt P05181); experiment: CYP2E1 inhibition assay (substrate MFC); type: in vitro ADME; conditions: 0.0169 to […] tested, na = concentration-dependent inhibition not observed
T3 construct: purchased Gentest Corp; host or cells: insect cells (baculovirus)
T3 sequence (P05181 whole entry): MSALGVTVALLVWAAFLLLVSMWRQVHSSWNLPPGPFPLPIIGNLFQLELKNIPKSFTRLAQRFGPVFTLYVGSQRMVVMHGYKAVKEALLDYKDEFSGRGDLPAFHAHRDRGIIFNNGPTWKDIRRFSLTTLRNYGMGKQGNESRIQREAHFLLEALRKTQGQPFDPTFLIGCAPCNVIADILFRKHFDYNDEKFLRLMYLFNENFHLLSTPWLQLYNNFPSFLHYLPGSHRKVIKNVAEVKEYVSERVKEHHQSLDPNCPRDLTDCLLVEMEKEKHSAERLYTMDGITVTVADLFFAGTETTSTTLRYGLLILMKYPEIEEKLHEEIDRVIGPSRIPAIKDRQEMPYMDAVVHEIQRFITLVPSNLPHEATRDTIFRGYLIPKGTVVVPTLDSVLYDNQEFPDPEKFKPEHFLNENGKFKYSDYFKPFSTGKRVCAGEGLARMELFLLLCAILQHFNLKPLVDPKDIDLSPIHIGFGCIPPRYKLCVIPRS
Experimental: All determinations were performed in duplicate.

Cc1ncc(COP(=O)(O)O)c(C=O)c1O [P5P, pyridoxal-5-phosphate]
pIC50 (CYP2C19): ~4.48 | Pyridoxal 5′-phosphate IC50 (CYP2A6): did not inhibit | Pyridoxal 5′-phosphate IC50 (CYP2B6): did not inhibit | pIC50 (CYP3A4; read-out: Pyridoxal 5′-phosphate IC50, CYP3A4, substrate BQ, 0.0169 to […] tested): < 4.43 | pIC50 (CYP3A4; read-out: Pyridoxal 5′-phosphate IC50 for CYP3A4, CYP3A4, substrate not given): ≤ 4.43 | Pyridoxal 5′-phosphate IC50 (CYP2E1): did not inhibit
